The values below come from US20140349329A1, “DENSITY ANALYSIS OF ORGANISMS BY MAGNETIC LEVITATION” (President and Fellows of Harvard College, priority 2011, published 2014).

Assay type in all cases: in vivo
Data set [1] has as its system C. elegans. Briefly: Density of C. elegans by magnetic levitation (MagLev) after exposure to drug. Conditions: worms treated with 6 mM aspirin (and Nile Red); medium 33% Percoll, 67% M9 buffer, 135 mM Mn•EDTA, 0.057 mM Ivermectin; T=23° C; N=10 worms; untreated 1.074±0.001. As to the method:
To show the applicability of the present methodologies, two experiments using magnetic levitation (MagLev) to quantify the change in density in different organisms are described. In particular, experiments were performed on C. elegans and embryos of Danio rerio (i.e., zebrafish). In these embodiments, the paramagnetic salt was chelated Mn•EDTA, and the osmolality of the paramagnetic medium was approximately isotonic with the species under study (˜300 mOsm/kg).
In the experiments on C. elegans, the organism was exposed to aspirin, which results in an accumulation of lipids in the organism due to the sequestration of coenzyme A and the inhibition of fatty acid degradation. A density estimate of C. elegans exposed to aspirin and the density of control C. elegans that were not exposed to aspirin was determined via a Percoll gradient. […] Aspirin-treated C. elegans were centrifuged with a set of density marker beads in order to measure the density of different populations of C. elegans qualitatively and to establish the ranges of interest for quantitative density measurements using MagLev. […]
Using MagLev, the density of different populations of C. elegans was calculated with high precision. […] The magnetic levitation set up used to quantify the density of each worm involved placing the sample between two magnets. […]

Data set [2] has as its system C. elegans. Kind of data set: Density estimate of C. elegans by centrifugation in a Percoll gradient with density marker beads. Conditions: qualitative. As to the method:
In the experiments on C. elegans, the organism was exposed to aspirin, which results in an accumulation of lipids in the organism due to the sequestration of coenzyme A and the inhibition of fatty acid degradation. A density estimate of C. elegans exposed to aspirin and the density of control C. elegans that were not exposed to aspirin was determined via a Percoll gradient. The density of C. elegans changed upon exposure to aspirin with respect to an unexposed control group. Aspirin-treated C. elegans were centrifuged with a set of density marker beads in order to measure the density of different populations of C. elegans qualitatively and to establish the ranges of interest for quantitative density measurements using MagLev. A chelated form of manganese, ethylenediaminetetraacetic acid disodium manganese salt (Mn•EDTA), was used in the MagLev experiments as it is FDA approved for in vivo applications. The analysis of treated and untreated populations of C. elegans by MagLev employed concentrations of Mn•EDTA up to several hundred millimolar. C. elegans were motile within the paramagnetic solution and their swimming motion counteracted the balance of magnetic and gravitational forces within the MagLev device. Ivermectin was introduced into the paramagnetic solution to paralyze the organisms, this stabilized the organisms within the MagLev device.

Data set [3] has as its system embryos of Danio rerio (i.e., zebrafish). Briefly: Development of zebrafish embryos levitated in paramagnetic medium. As to the method: To show the applicability of the present methodologies, two experiments using magnetic levitation ([…]) to quantify the change in density in different organisms are described. In particular, experiments were performed on C. elegans and embryos of Danio rerio (i.e., zebrafish). In these embodiments, the paramagnetic salt was chelated Mn•EDTA, and the osmolality of the paramagnetic medium was approximately isotonic with the species under study ( 300 mOsm/kg). The development of zebrafish was monitored over a period of 54 h in a solution of 100 mM Gd•DTPA and 150 mM Gd•DTPA with Percoll and a saline solution (FIG. 4). […] In these experiments, four zebrafish embryos (collected from one strain of fish) were placed into a paramagnetic medium containing Gd•DTPA, Percoll and saline buffer. For these experiments, polystyrene spheres were included as density controls. After 16 hours of monitoring development, the levitation medium was changed to one composed of a higher concentration of the gadolinium chelate.

As for `CC(=O)Oc1ccccc1C(=O)O` [aspirin], in the data set with C. elegans [1], the “density of worms (MagLev)” value is 1.070 ± 0.002 g/mL. Further, in the data set on C. elegans [2], the “density of C. elegans upon exposure, with respect to unexposed control group” value is “changed”.

With `O=C([O-])CN(CCN(CC(=O)[O-])CC(=O)O)CCN(CC(=O)[O-])CC(=O)O.[Gd+3]` [Gd•DTPA], the “development of embryos in the paramagnetic solution” value in data set [3] (100 mM and 150 mM Gd•DTPA with Percoll and saline solution, monitored over 54 h) was “not affected”. Also, the “morphology of the embryos after increase in concentration of the paramagnetic salt” value in data set [3] (medium changed after 16 hours to a higher concentration of the gadolinium chelate) is “did not affect the morphology”.
